This experiment addresses T1, His-tagged human cyclophilin-A (His-CypA) (Homo sapiens, UniProt P62937).
T1 construct: gene PPIA; full length M1-E165, codon-optimised, E. coli C41
As to the kind of experiment: SPR (Biacore T200), […] Langmuir fit, captured and stabilised His-CypA. The class given is binding.

T1 sequence (P62937 whole entry): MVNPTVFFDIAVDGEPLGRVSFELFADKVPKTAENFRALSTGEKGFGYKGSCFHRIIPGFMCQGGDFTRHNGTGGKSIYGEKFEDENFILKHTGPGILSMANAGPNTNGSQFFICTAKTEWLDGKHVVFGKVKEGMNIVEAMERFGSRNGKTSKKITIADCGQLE

`Nc1cccnc1N` [2,3-diaminopyridine]: the affinity, expressed as Kd, was 248 ± 60 µM.

Source of the values: PMC5377415, “Thermo‐kinetic analysis space expansion for cyclophilin‐ligand interactions – identification of a new nonpeptide inhibitor using Biacore™ T200” (FEBS Open Bio, 2017).
